The values that follow are results of earlier work, collected in US20110086399A1, “RECOVERY OF STILBENOIDS” (FLUXOME SCIENCES A/S, priority 2008, published 2011).

As a reminder, the aqueous solubility is how much of the substance goes into solution per volume.

Structures are written as SMILES. A value given as a limit tells only on which side of the number the result lay.

The conditions of this series: stated for comparison with the concentrations in the cell broth.

For the compound `Oc1cc(O)cc(/C=C/c2ccccc2)c1` [pinosylvin], the aqueous solubility was less than 30 µg/mL.
